Measured values as given in US10813920B2, “Drug for treating corneal endothelium by promoting cell proliferation or inhibiting cell damage” (THE DOSHISHA, priority 2013, dated 2020).

Columns and labels:
[1] = test system: human corneal endothelial cells; test: Na+/K+-ATPase and ZO-1 immunostaining (pumping and barrier function markers); type: cell-based; conditions: 1, 3, 10 μM; immunostaining after 20 days
Experimental: *Human corneal endothelial cells (HCEC, where the cells were obtained and culturing method thereof): HCEC was cultured as follows. In short, Descemet's membrane including corneal endothelial cells was peeled off from a corneal for research purchased from the Seattle Eye Bank, and the corneal endothelial cells were mechanically peeled off with a basal membrane. After collagenase (ROCHE catalog No: 10 103 586 001) was used to detach and collect the corneal endothelial cell from the basal membrane (typically 1 mg/mL collagenase A (Roche Applied Science) was used for treatment at 37° C. for 2 hours), the cells were subjected to primary culture. The medium used was Opti-MEM I Reduced-Serum Medium, Liquid (INVITROGEN catalog No.: 31985-070) to which 8% fetal bovine serum (FBS) (BIOWEST, catalog No.: S1820-500), […] of CaCl2.2H2O (SIGMA catalog No.: C7902-500G), 0.08% of chondroitin sulfate (SIGMA catalog No.: C9819-5G), 20 μg/ml of ascorbic acid (SIGMA catalog No.: A4544-25G), 50 μg/ml of gentamicin (INVITROGEN catalog No.: 15710-064) and 5 ng/ml of EGF (INVITROGEN catalog No.: PHG0311) were added and acclimated for a 3T3 feeder cell. […] Immunostaining was applied to the cells for observation with a fluorescence microscope. […]

[2] = test system: human corneal endothelial cells; test: Decrease in cell density of cultured human corneal endothelial cells (phase difference microscope); type: cell-based; conditions: 1, 3, 10 μM; after 20 days; vs control
Description: For corneal endothelial cells, cell density decreases about 0.5% annually with age in a living organism. Further, the cell density also decreases due to various corneal endothelial diseases. Cell culture causes hypertrophy of cells and cellular as in a living organism and cellular senescence like reduction as in a living organism, which is a decrease in cell density. In this regard, the effect of p38 MAP kinase signal inhibition was studied on cellular senescence like reduction, which is a decrease in corneal endothelial cell density. […] Decrease in cell density due to culturing was inhibited and the cell density increased in an SB203580 concentration-dependent manner (bottom panel: vertical axis indicates cell density (mm^2) and the horizontal axis indicates, from the left, control, SB203580 1 μM, 3 μM, and 10 μM. ** indicates statistical significance (p<0.05) with respect to the control).
Cellular senescence-like decrease similar to a living organism, such as hypertrophy and decrease in density of cells, occurs from cell culture. In this regard, the effect of p38 MAP kinase signal inhibition on cellular senescence-like decrease such as decrease in corneal endothelial cell density was studied. […]

corneal endothelium = test: Partial rabbit corneal endothelial disorder model, eye drops; type: in vivo
Experimental: A stainless steel chip with a diameter of 7 mm was immersed in liquid nitrogen and cooled. The chip was contacted with the center portion of a corneal of a Japanese white rabbit (obtained from Oriental Bioservice) for 15 seconds under general anesthesia, such that corneal endothelial cells at the center portion partially fell off. Eye drops of SB203580 adjusted to 10 mM was then administered 4 times a day for 2 days at 50 μl per dose. As a control, eye drops of a base agent were administered in an eye in which a partial corneal endothelial disorder was similarly created, and a picture was taken. Further, the rabbit was euthanized and the corneal was extracted. The wounded area of the corneal endothelium was stained with alizarin red S (Nacalai Tesque, CI-58005) and observed. Furthermore, immunostaining was applied to corneal tissue with the cell proliferation marker Ki67. The same methodology as the aforementioned Examples or the like was used for immunostaining.

SMILES: C[S+]([O-])c1ccc(-c2nc(-c3ccncc3)c(-c3ccc(F)cc3)[nH]2)cc1 (centres unmarked) [SB203580, 4-(4-fluorophenyl)-2-(4-methylsulfinylphenyl)-5-(4-pyridyl)-1H-imidazole]
- expression of Na+/K+-ATPase and ZO-1 [1]: express Na^+/K^+-ATPase and ZO-1 and to maintain normal functions in all cells
- Decrease in cell density due to culture [2]: inhibited in a SB203580 concentration dependent manner
- wound area of corneal endothelium (alizarin staining) (corneal endothelium; 10 mM eye drops 4 times a day for 2 days, 50 μl per dose, 6 eyes each, vs control, p<0.01): contracted significantly more
- transparency of cornea (anterior eye section picture) (corneal endothelium; 10 mM eye drops 4 times a day for 2 days, 50 μl per dose, day 2): recovered quickly
- Expression of Ki67 in corneal tissue (ratio of Ki67 positive cells) (corneal endothelium; 10 mM eye drops, vs control): significantly more cells
